{"source": "patent US7135305B2", "about": "“Methods for controlling the lysis of coagulated blood with apolipoprotein e4 phenotype” (priority 2000, dated 2006)", "key": {"[1]": {"test_system": "t-PA stimulated clot lysis in fresh human blood", "test": "in vitro clot lysis measured by the amount of liquid liberated from the blood sample (Example 1)", "details": "FIG. 2; individual B's blood; t-PA alone 0.5 mg/l blood; N=3", "from_the_text": "There are various methods for determining the function, action and or kinetics of t-PA. These include but are not limited to: measuring fibrin degradation fragments, clot lysis, clot weight, fluid evolution weight, clot times and others. Those experienced in the art will be familiar with these and other methods for assaying t-PA activity or clot degradation/formation etc. The data from this study consists of a measurement of clot dissolution or lysis by measuring the amount of liquid liberated from the blood sample. This is an index of clot lysis and the clot lysis is stimulated by t-PA.\nTypically, two mls of fresh human blood are drawn and added to pre-weighed vials containing known amounts of t-PA with or without Apo E4. The blood is mixed and allowed to equilibrate for 40 minutes. The vials are centrifuged at 1 g for 15 minutes and the supernatant decanted. Clot weight and solution weight is determined and used to measure clot degradation or dissolution. Increasing supernatant volumes indicate increased clot degradation or increasing clot dissolution."}, "t-PA induced clot lysis": {"test_system": "t-PA induced clot lysis", "test": "in vitro clot assay system, t-PA induced clot lysis with supplemental Apo E isoproteins (Example 3)", "parameters": "species or system human", "details": "FIG. 4; t-PA 0 to 4 μg/ml, alone or with supplemental Apo E 9.8 μg/ml; blood of 18 volunteers", "procedure": "The ability of Apo E isoproteins to modulate t-PA induced clot lysis is assessed using an in vitro clot assay system. This system uses the decrease in clot formation in the presence of t-PA to approximate the amount of clot lysis. Blood samples are obtained from 18 volunteers and divided into three Apo E genotypes (6 patients in each group): E2 (E2/E2, E2/E3, E2/E4), E3 (E3/E3) and E4 (E3/E4, E4/E4). Clot lysis in the presence of varying concentrations of t-PA (0 to 4 μg/ml), is assessed in the presence or absence of supplemental Apo E2, E3 or E4 (9.8 μg/ml) for each patient genotype. The results are expressed as EC50s, which are the effective concentrations of t-PA required to achieve 50% lysis of the clot."}}, "data": [{"substance": "t-PA: tissue plasminogen activator, clot lysis agent", "values": [{"measurement": "level of clot lysis", "setting": "[1]", "value": 2.5, "unit": "g"}, {"measurement": "EC50, effective concentration of t-PA required to achieve 50% lysis of the clot", "setting": "t-PA induced clot lysis", "value": "0.72 ± 0.19", "unit": "µg/mL"}]}]}
